Legend:
Assay in all cases: relative viability (nuclei count vs DMSO), 5 days (fraction); higher = more cells survive
[1] = tested on: NCI-H2342
In short: (§1)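 Lung cancer cell lines in 1536-well plates got either a single drug or a fixed anchor-drug dose together with five library-drug doses (not always all listed) in √10 steps, by pin tool, on the day after seeding. Nuclei were counted after 5 days, and relative viability is the treated-to-vehicle ratio of nuclei counts. Values are medians of duplicate plates.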

[2] = tested on: NCI-H1437
In short: as §1

[3] = tested on: NCI-H596
In short: as §1

[4] = tested on: NCI-H1299
In short: as §1

[5] = tested on: NCI-H1623
In short: as §1

[6] = tested on: EBC-1
In short: as §1

[7] = tested on: NCI-H1355
In short: as §1

[8] = tested on: A549
In short: as §1

[9] = tested on: NCI-H1703
In short: as §1

[10] = tested on: Calu-6
In short: as §1

[11] = tested on: LCLC-97TM1
In short: as §1

[12] = tested on: IA-LM
In short: as §1

CCNC(=O)c1noc(-c2cc(C(C)C)c(O)cc2O)c1-c1ccc(CN2CCOCC2)cc1 [Luminespib] + COc1cc2c(Oc3ccc(NC(=O)C4(C(=O)Nc5ccc(F)cc5)CC4)cc3F)ccnc2cc1OCCCN1CCOCC1 [Foretinib] (partner 0.25 µM)
relative viability ([1]; first compound 0.002 µM): 1.02 | relative viability ([1]; first compound 0.006325 µM): 0.991 | relative viability ([1]; first compound 0.02 µM): 0.656 | relative viability ([1]; first compound 0.06325 µM): 0.786 | relative viability ([1]; first compound 0.2 µM): 0.543 | relative viability ([2]; first compound 0.002 µM): 1.3 | relative viability ([2]; first compound 0.006325 µM): 1.2 | relative viability ([2]; first compound 0.02 µM): 1.33 | relative viability ([2]; first compound 0.06325 µM): 1.24 | relative viability ([2]; first compound 0.2 µM): 0.526 | relative viability ([3]; first compound 0.002 µM): 0.868 | relative viability ([3]; first compound 0.006325 µM): 0.78 | relative viability ([3]; first compound 0.02 µM): 0.695 | relative viability ([3]; first compound 0.06325 µM): 0.787 | relative viability ([3]; first compound 0.2 µM): 0.783 | relative viability ([4]; first compound 0.002 µM): 1.08 | relative viability ([4]; first compound 0.006325 µM): 0.989 | relative viability ([4]; first compound 0.02 µM): 1.09 | relative viability ([4]; first compound 0.06325 µM): 1.07 | relative viability ([4]; first compound 0.2 µM): 0.191 | relative viability ([5]; first compound 0.002 µM): 0.885 | relative viability ([5]; first compound 0.006325 µM): 0.783 | relative viability ([5]; first compound 0.02 µM): 0.67 | relative viability ([5]; first compound 0.06325 µM): 0.673 | relative viability ([5]; first compound 0.2 µM): 0.375 | relative viability ([6]; first compound 0.002 µM): 0.0894 | relative viability ([6]; first compound 0.006325 µM): 0.116 | relative viability ([6]; first compound 0.02 µM): 0.113 | relative viability ([6]; first compound 0.06325 µM): 0.0992 | relative viability ([6]; first compound 0.2 µM): 0.104 | relative viability ([7]; first compound 0.002 µM): 1.02 | relative viability ([7]; first compound 0.006325 µM): 0.912 | relative viability ([7]; first compound 0.02 µM): 0.671 | relative viability ([7]; first compound 0.06325 µM): 0.927 | relative viability ([7]; first compound 0.2 µM): 0.622 | relative viability ([8]; first compound 0.002 µM): 1.04 | relative viability ([8]; first compound 0.006325 µM): 0.842 | relative viability ([8]; first compound 0.02 µM): 1.09 | relative viability ([8]; first compound 0.06325 µM): 0.138 | relative viability ([8]; first compound 0.2 µM): 0.0269 | relative viability ([9]; first compound 0.002 µM): 0.332 | relative viability ([9]; first compound 0.006325 µM): 0.348 | relative viability ([9]; first compound 0.02 µM): 0.396 | relative viability ([9]; first compound 0.06325 µM): 0.21 | relative viability ([9]; first compound 0.2 µM): 0.222 | relative viability ([10]; first compound 0.002 µM): 0.888 | relative viability ([10]; first compound 0.006325 µM): 0.889 | relative viability ([10]; first compound 0.02 µM): 1.03 | relative viability ([10]; first compound 0.06325 µM): 0.0858 | relative viability ([10]; first compound 0.2 µM): 0.086 | relative viability ([11]; first compound 0.002 µM): 0.949 | relative viability ([11]; first compound 0.006325 µM): 0.915 | relative viability ([11]; first compound 0.02 µM): 0.935 | relative viability ([11]; first compound 0.06325 µM): 0.952 | relative viability ([11]; first compound 0.2 µM): 0.626 | relative viability ([12]; first compound 0.002 µM): 1.07 | relative viability ([12]; first compound 0.006325 µM): 1.13 | relative viability ([12]; first compound 0.02 µM): 1.23 | relative viability ([12]; first compound 0.06325 µM): 0.0645 | relative viability ([12]; first compound 0.2 µM): 0.0409

CN1CCN(CCOc2cc(OC3CCOCC3)c3c(Nc4c(Cl)ccc5c4OCO5)ncnc3c2)CC1 [Saracatinib] + N=C(N)NC(=N)NCCc1ccccc1 [Phenformin] (partner 250 µM)
relative viability ([1]; first compound 0.02 µM): 0.702 | relative viability ([1]; first compound 0.2 µM): 0.529 | relative viability ([1]; first compound 0.6325 µM): 0.673 | relative viability ([1]; first compound 2 µM): 0.505 | relative viability ([2]; first compound 0.02 µM): 0.375 | relative viability ([2]; first compound 0.2 µM): 0.345 | relative viability ([2]; first compound 0.6325 µM): 0.329 | relative viability ([2]; first compound 2 µM): 0.27 | relative viability ([3]; first compound 0.02 µM): 0.845 | relative viability ([3]; first compound 0.2 µM): 0.625 | relative viability ([3]; first compound 0.6325 µM): 0.689 | relative viability ([3]; first compound 2 µM): 0.67 | relative viability ([5]; first compound 0.02 µM): 0.619 | relative viability ([5]; first compound 0.2 µM): 0.53 | relative viability ([5]; first compound 0.6325 µM): 0.297 | relative viability ([5]; first compound 2 µM): 0.395 | relative viability ([7]; first compound 0.02 µM): 0.453 | relative viability ([7]; first compound 0.2 µM): 0.397 | relative viability ([7]; first compound 0.6325 µM): 0.453 | relative viability ([7]; first compound 2 µM): 0.407 | relative viability ([8]; first compound 0.02 µM): 0.161 | relative viability ([8]; first compound 0.2 µM): 0.121 | relative viability ([8]; first compound 0.6325 µM): 0.156 | relative viability ([8]; first compound 2 µM): 0.154 | relative viability ([11]; first compound 0.02 µM): 0.461 | relative viability ([11]; first compound 0.2 µM): 0.399 | relative viability ([11]; first compound 0.6325 µM): 0.469 | relative viability ([11]; first compound 2 µM): 0.413

Reference: the supplement of paper PMC10307832
